# Test results as given in US11590163B2, “Iron-fortified food composition” (SOCIETE DES PRODUITS NESTLE S.A., priority 2017, dated 2023).
# Key:
# [1] = Colour change in iron-fortified bouillon (CIELAB ΔEab*); assay type: physicochemical; conditions: chicken bouillon containing curcumin, approx. 5.5 mg iron per 6.55 g powder, reconstituted in 250 mL boiling water, 60° C. min. 30 minutes; vs bouillon with no iron
# Protocol: Commercial Maggi Chicken Bouillon (Nestle Nigeria) containing curcumin was iron fortified by the addition of iron (III) complexes from Example 1, as well as ferrous sulphate (Dr. P. Lohmann GmbH KG) Ref1, and […] (Dr. P. Lohmann GmbH KG) Ref2. The amounts were chosen to provide approximately 5.5 mg of iron per 6.55 g of bouillon powder. A further sample without iron fortification was also prepared in the same manner. All samples were reconstituted in 250 mL of boiling water and kept at 60° C. for a minimum of 30 minutes.
# Colour measurements were performed in 2.6×1 cm quartz cuvettes using an XRite ColorEye 7000A colorimeter. The colorimeter was set up with a D65 light source, 10 degree observer angle, specular component included and Large area View (LAV). The colour difference between the beverage with no iron salt and the iron-fortified beverages was measured for each material and expressed as ΔEab* using the CIELAB colour scale (Table 2).
# [2] = Human stable-isotope iron bioavailability study (erythrocyte incorporation); assay type: in vivo; conditions: healthy adult women
# Protocol: Clinical trials were performed on fortified chicken bouillon and fortified chicken bouillon with corn flour to simulate inhibitory conditions. The trial was performed by ETH Zurich (Switzerland). The study was a controlled, single blind, single centre, and randomized cross-over trial in 22 healthy adult women, with each woman serving as their own control. Each participant consumed 6 different types of investigational products: bouillon respectively bouillon with maize porridge fortified either with PA:^58Fe:HCP, ^54FeSO4, (Ref1-labelled) or ^57FePP (Ref2-labelled). The PA:^58Fe:HCP complex was prepared as Example 1 sample 9 apart from the use of ^58Fe. The order of test meal administration was randomly assigned. […]
# Fractional iron absorption (FIA) was calculated based on the measured shift of iron isotope ratios in the blood 14 days after the test meal administrations, from the blood samples collected on days 1, 17 and 35. […] The amounts of ^54Fe, ^57Fe and ^58Fe in the blood were calculated on the principle of isotope dilution by considering that iron isotopic labels are not mono-isotopic. Circulating iron was calculated based on blood volume and hemoglobin concentration. Blood volume was indirectly measured based on height and weight and calculated using the formula proposed by Brown et al [E. Brown et al., The Journal of clinical investigation, 41:21, 82-90.(1962)]. […]
SMILES,Δ E [1],fractional iron absorption ([2]; in bouillon plus maize meal rich in phytate) [%],fractional iron absorption ([2]; in bouillon) [%]
"O=S(=O)([O-])[O-].[Fe+2] [Ref1, ferrous sulphate]",15.2,,
O=S(=O)([O-])[O-].[54Fe+2] [^54FeSO4],,3.6,24.6
